In ChEMBL document CHEMBL3867432, “Autophagy regulates Selumetinib (AZD6244) induced-apoptosis in colorectal cancer cells” (Eur J Med Chem, 2016):
The source made the active and inactive calls. No cut-off for these calls is given here.

Legend:
[1] = system: SW480; assay: Induction of apoptosis in human SW480 cells assessed as accumulation at subG1 phase at 10 uM after 48 hrs in presence of autophagy inducer rapamycin by propidium iodide staining based flow cytometry (reference value: 5.7 to 15.3%); format: functional
[2] = system: SW480; assay: Induction of autophagy in human SW480 cells assessed as increase in LC3-2 level at 10 uM after 1 to 4 hrs by Western blot analysis; format: functional, cell-based
[3] = Cell cycle arrest in human SW480 cells assessed as accumulation at G1 phase at 3 uM after 48 hrs by propidium iodide staining based flow cytometry (reference value: 61.2%); format: functional
[4] = system: SW480; assay: Induction of apoptosis in human SW480 cells assessed as apoptotic cells at 10 uM after 48 hrs by annexin V-FITC/propidium iodide staining based flow cytometry (reference value: 9.6 to 15.3%); format: functional
[5] = system: SW480; assay: Induction of apoptosis in human SW480 cells assessed as apoptotic cells at 1 uM after 48 hrs by annexin V-FITC/propidium iodide staining based flow cytometry (reference value: 10.6%); format: functional
[6] = system: SW480; assay: Induction of apoptosis in human SW480 cells assessed as increase in LC3-2 level at 10 uM after 48 hrs in presence of autophagy inhibitor bafilomycin A1 by Western blot analysis; format: functional, cell-based
[7] = system: HT-29; assay: Induction of apoptosis in human HT-29 cells assessed as apoptotic cells at 10 uM after 48 hrs in presence of autophagy inhibitor CQ by annexin V-FITC/propidium iodide staining based flow cytometry (reference value: 15.7 to 19.6%); format: functional
[8] = Cell cycle arrest in human SW480 cells assessed as accumulation at G1 phase at 1 uM after 48 hrs by propidium iodide staining based flow cytometry (reference value: 61.2%); format: functional
[9] = system: SW480; assay: Induction of apoptosis in human SW480 cells assessed as apoptotic cells at 10 uM after 48 hrs in presence of autophagy inhibitor bafilomycin A1 by annexin V-FITC/propidium iodide staining based flow cytometry (reference value: 9.6 to 15.3%); format: functional
[10] = system: SW480; assay: Induction of apoptosis in human SW480 cells assessed as apoptotic cells at 10 uM after 48 hrs in presence of autophagy inhibitor 3-MA by annexin V-FITC/propidium iodide staining based flow cytometry (reference value: 9.6 to 15.3%); format: functional
[11] = Cell cycle arrest in human SW480 cells assessed as accumulation at subG1 phase at 3 uM after 48 hrs by propidium iodide staining based flow cytometry (reference value: 5.7%); format: functional
[12] = system: SW480; assay: Induction of apoptosis in human SW480 cells assessed as necrotic cells at 10 uM after 48 hrs by annexin V-FITC/propidium iodide staining based flow cytometry (reference value: 2.8%); format: functional
[13] = system: SW480; assay: Induction of apoptosis in human SW480 cells after 48 hrs by annexin V-FITC/propidium iodide staining based flow cytometry; format: functional, cell-based
[14] = Cell cycle arrest in human SW480 cells after 48 hrs by propidium iodide staining based flow cytometry; format: functional
[15] = system: SW480; assay: Induction of apoptosis in human SW480 cells assessed as apoptotic cells at 10 uM after 48 hrs in presence of autophagy inhibitor CQ by annexin V-FITC/propidium iodide staining based flow cytometry (reference value: 9.6 to 15.3%); format: functional
[16] = system: SW480; assay: Induction of apoptosis in human SW480 cells assessed as necrotic cells at 1 uM after 48 hrs by annexin V-FITC/propidium iodide staining based flow cytometry (reference value: 2.8%); format: functional
[17] = Cell cycle arrest in human SW480 cells assessed as accumulation at subG1 phase at 1 uM after 48 hrs by propidium iodide staining based flow cytometry (reference value: 5.7%); format: functional
[18] = system: SW480; assay: […] of autophagy in human SW480 cells expressing mCherry-eGFPeLC3 assessed as accumulation of autophagosomes at 10 uM after 2 hrs by confocal microscopic analysis; format: functional, cell-based
[19] = system: SW480; assay: Induction of apoptosis in human SW480 cells assessed as accumulation at subG1 phase at 10 uM after 48 hrs in presence of pan caspase inhibitor zVAD by Annexin-V-FITC/propidium iodide staining based flow cytometry (reference value: 15.3%); format: functional
[20] = Cell cycle arrest in human SW480 cells assessed as accumulation at G1 phase at 10 uM after 48 hrs by propidium iodide staining based flow cytometry (reference value: 61.2%); format: functional
[21] = Antiproliferative activity against human SW480 cells after 72 hrs by MTT assay; format: functional, cell-based; settings: SW480, 72 h
[22] = system: SW480; assay: Induction of apoptosis in beclin-1 silenced human SW480 cells assessed as apoptotic cells at 10 uM after 48 hrs by annexin V-FITC/propidium iodide staining based flow cytometry (reference value: 14.4%); format: functional
[23] = Cell cycle arrest in human SW480 cells assessed as accumulation at subG1 phase at 10 uM after 48 hrs by propidium iodide staining based flow cytometry (reference value: 5.7 to 15.3%); format: functional
[24] = system: HT-29; assay: Induction of apoptosis in human HT-29 cells assessed as apoptotic cells at 10 uM after 48 hrs in presence of autophagy inhibitor bafilomycin A1 by annexin V-FITC/propidium iodide staining based flow cytometry (reference value: 15.7 to 19.6%); format: functional
[25] = system: SW480; assay: Induction of apoptosis in human SW480 cells assessed as necrotic cells at 3 uM after 48 hrs by annexin V-FITC/propidium iodide staining based flow cytometry (reference value: 2.8%); format: functional
[26] = system: HT-29; assay: Induction of apoptosis in human HT-29 cells assessed as apoptotic cells at 10 uM after 48 hrs by annexin V-FITC/propidium iodide staining based flow cytometry (reference value: 15.7 to 19.6%); format: functional
[27] = system: SW480; assay: Induction of apoptosis in human SW480 cells assessed as apoptotic cells at 3 uM after 48 hrs by annexin V-FITC/propidium iodide staining based flow cytometry (reference value: 10.6%); format: functional
[28] = system: SW480; assay: Induction of apoptosis in human SW480 cells assessed as apoptotic cells at 10 uM after 48 hrs in presence of autophagy inducer rapamycin by annexin V-FITC/propidium iodide staining based flow cytometry (reference value: 9.6 to 15.3%); format: functional

## Cn1cnc2c(F)c(Nc3ccc(Br)cc3Cl)c(C(=O)NOCCO)cc21 [SELUMETINIB]
[1]
  Activity: 11.9%
[2]
  Activity: Active
[3]
  Activity: 59.6%
[4]
  Activity: 29 - 42.9%
[5]
  Activity: 17.4%
[6]
  Activity: Active
[7]
  Activity: 58.6%
[8]
  Activity: 75%
[9]
  Activity: 64.9%
[10]
  Activity: 41.1%
[11]
  Activity: 17.8%
[12]
  Activity: 5.3%
[13]
  Activity: Dose-dependent effect
[14]
  Activity: Dose-dependent effect
[15]
  Activity: 55.4%
[16]
  Activity: 4.2%
[17]
  Activity: 10%
[18]
  inhibition: Active
[19]
  Activity: 24.1%
[20]
  Activity: 58%
[21]
  IC50: 422 nM
[22]
  Activity: 53.3%
[23]
  Activity: 23.7 to 42.9%
[24]
  Activity: 68.3%
[25]
  Activity: 4.9%
[26]
  Activity: 43.9 - 51.2%
[27]
  Activity: 23.1%
[28]
  Activity: 21.4%
